{
  "source": "patent US20050075315A1",
  "about": "“Antitumor agent” (FUSO PHARMACEUTICAL INDUSTRIES, LTD, priority 2002, published 2005)",
  "key": {"[1]": {"test_system": "stomach cancer cell line (STKM)", "assay": "cell adhesiveness test by the calorimetric assay", "type": "cell-based", "details": "37° C. for 48 hrs, OD 600 nm, FIG. 1", "source_text": "The calorimetric assay as described in the examples below can be employed for assaying the adhesiveness of a cell, and the thymidine incorporate assay can be employed for assaying the mortality of a cell. These two assays are general methods for determining the behavior of a tumor cell. For the colorimetric assay, see Enhancer sequences of DF3 gene regulate expression of the herpes simplex virus thymidine kinase gene and confer sensitivity of human breast cancer cell to ganciclovir: Manome Y, Abe M, Hagen F. M, Fine A. H, and Kufe W. D, Cancer Research 54:5408-5413, 1994. For the thymidine incorporate assay, see Meneki Jikken Sousa-ho II (edited by S. Uda, S. Konda, Y. Honsho, T, Hamaoka, 773-774, Nanko-do, 1995).\n(§1) To 1×10^6 cells of a stomach cancer cell line (STKM), BA was added by such proportional concentrations as 1, 1.5, 2.0, 2.5 and 5 mg/ml. An equal amount of the physiological saline was added to prepare a control sample. All the samples were incubated at 37° C. for 48 hrs. The shape of the cell was studied through an inverted microscope. The adhesiveness and the mortality of the cell were measured by the calorimetric assay and the thymidine incorporate assay.\n(1) The Cell Adhesiveness Test by the Calorimetric Assay:\n100% gulutalaldehyde was added to each of samples by a ¼ the medium amount (250 μl), then left to stand at a room temperature for 15 min. […]"}, "[2]": {"test_system": "stomach cancer cell line (STKM)", "assay": "cell shape by inverted microscope in vitro", "type": "cell-based", "details": "BA 2.5 mg/ml, 37° C. for 48 hrs, FIG. 3", "description": "as §1\nOne ml of BA of 2.5 mg/ml was added to 1×10^6 cells followed by incubating at 37° C. for 48 hrs to get the image as shown in FIG. 3. The equal amount of physiological saline was similarly added, followed by incubating in the same way to get the control. […] The nucleus also got remarkably blackened. The above result confirms that a stomach cancer cell arrived at death in vitro."}, "[3]": {"test_system": "stomach cancer cell line (STKM) tumor", "assay": "antitumor effect on STKM tumor in nude mouse in vivo", "description": "1×10^8 cells of a stomach cancer cell line (STKM) were subcutaneously injected in the back of a nude mouse. When a tumor grew to have a diameter of 5 mm or more after 8 weeks, BA was administrated to the tumor or around the tumor by 4 mg/0.5 ml twice a week for 4 weeks. For a control, 0.5 ml of physiological saline was locally injected to the tumor. The tumor diameter was measured. The tumor tissue was taken out and subjected to the H-E dyeing to observe with a microscope.\nA stomach cancer cell line (STKM) was implanted in a living body. When a tumor grew to have a diameter of 5 mm or more, BA was administrated by 4 mg/0.5 ml twice a week for 4 weeks. […] The tumor diameter decreased to the ½ or less after the 32 mg administration (4 weeks).\nFIGS. 4 and 5 show the images obtained by extracting the tumor after 4 weeks of administration, fixing with 10% formalin, slicing to 3 μm pieces and H-E dyeing. […] The above result confirms that the stomach cancer cell arrived at death in vivo."}, "[4]": {"test_system": "STKM (a stomach cancer cell line)", "assay": "DNA Laddering assay", "type": "cell-based", "details": "2 ml of BA of 2.5 mg/ml, 48 hrs, FIG. 6", "source_text": "(§2) The DNA Laddering assay, the TUNEL assay and the Caspase assay as described in the examples below are general methods for determining whether a cell arrives at death through an apoptosis route or not. For the DNA Laddering assay, see Shin Apoptosis Jikken-ho (edited by K. Tsujimoto, S. Tone, T. Yamada, 59-66, Yodosya, 1999). For the TUNEL assay, see Shin Apoptosis Jikken-ho (edited by K. Tsujimoto, S. Tone, T. Yamada, 67-74, Yodosya, 1999). For the Caspase assay, see Shin Apoptosis Jikken-ho (edited by K. Tsujimoto, S. Tone, T. Yamada, 198-200, Yodosya, 1999).\n(§3) For a cell group capable of being guided to the cell mortality, it was determined that through which route, apoptosis or necrosis, the cell arrived at death. Namely, BA was added to the cell at a certain concentration or more necessary to guide to the cell mortality, and the cell was collected after confirmation of the change in shape. Then, the DNA Laddering assay with gel electrophoresis to investigate the DNA fragmentation and the TUNEL assay with the cell dyeing were carried out.\n2 ml of BA of 2.5 mg/ml was added to 1.5×10^6 cells (STKM) followed by incubating at 37° C. for 48 hrs to collect the cells. The collected cells were centrifuged and added in 100 μl of lysis buffer (10 mM EDTA, 50 mM Tris-HCl, pH 8.0, 0.5% SDS, 0.5 mg/ml Proteinase K), followed by incubating at […] for 3 hrs. […]"}, "STKM cells": {"test_system": "STKM cells", "assay": "TUNEL assay", "type": "cell-based", "details": "2 ml of BA of 2.5 mg/ml, 48 hrs, FIG. 7", "source_text": "as §2, §3\n2 ml of BA of 2.5 mg/ml was added to 1.5×10^5 cells (STKM) on a slide glass, followed by incubating at 37° C. for 48 hrs and fixing with 1% paraformaldehyde in PBS at a room temperature for 10 min. For a control, the equal amount of physiological saline was added. […]"}, "Caspase-3": {"test_system": "Caspase-3", "assay": "Caspase-3 activity assay", "type": "cell-based", "details": "2 ml of BA of 2.5 mg/ml", "source_text": "as §2\n(§4) To 1.5×10^6 cells, 2 ml of BA of 2.5 mg/ml for a test sample, the equal amount of physiological saline for a negative control sample, and Arac 1×10^−5M (Kirosaito, Nippon Shinyaku) for a positive control sample were added respectively, each of which was followed by incubating at 37° C. for 48 hrs to recover the cells. Then, the CPP32/Caspase-3, -8 Colorimetric Protease Assay kit (MBL Co.) was applied to the samples. The application was briefly as follows: • 1. […]"}, "Caspase-8": {"test_system": "Caspase-8", "assay": "Caspase-8 activity assay", "type": "cell-based", "details": "2 ml of BA of 2.5 mg/ml, 48 hrs", "source_text": "as §2, §4"}, "lung cell line (WI38)": {"test_system": "lung cell line (WI38)", "assay": "colorimetric assay on a normal cell", "type": "cell-based", "details": "FIG. 10", "description": "(§5) 100% gulutalaldehyde was added to each of samples by a ¼ the medium amount (250 μl), then left to stand at a room temperature for 15 min. After washing, 250 μl of 0.05% Methylene Blue in PBS was added and then left to stand at a room temperature for 15 min. After washing, 250 μl of 0.33N HCl was added, followed by leaving to stand at a room temperature for 15 min and measuring the OD (600 nm).\n(§6) In order to confirm that the BA administration effects specifically a cancer cell to arrive at death, the colorimetric assay was carried out on a normal cell, that is, an umbilical cord cell line (Huvec) and a lung cell line (WI38), in the same way as in Example 1. The stomach cancer cell line (STKM) was used for a control."}, "[5]": {"test_system": "umbilical cord cell line (Huvec)", "assay": "colorimetric assay on a normal cell", "type": "cell-based", "details": "FIG. 10", "description": "as §5, §6"}, "[6]": {"test_system": "breast cancer cell line BSMZ", "assay": "tests as in Examples 1, 2 and 3", "type": "cell-based", "description": "(§7) The tests were carried out on a breast cancer cell line (MCF-7, BSMZ), a large bowel cancer cell line (DLD, LOVO), a thyroid gland cancer cell line (SW1736), and a pancreas cancer cell line (PA-1) in the same ways as in Examples 1, 2, and 3. As the result, the cell mortality began with about 1.5 mg/ml of BA to increase in proportion to the BA concentration, same as adhesiveness thereof."}, "[7]": {"test_system": "breast cancer cell line MCF-7", "assay": "tests as in Examples 1, 2 and 3", "type": "cell-based", "description": "as §7"}, "[8]": {"test_system": "large bowel cancer cell line DLD", "assay": "tests as in Examples 1, 2 and 3", "type": "cell-based", "description": "as §7"}, "[9]": {"test_system": "large bowel cancer cell line LOVO", "assay": "tests as in Examples 1, 2 and 3", "type": "cell-based", "description": "as §7"}, "[10]": {"test_system": "pancreas cancer cell line PA-1", "assay": "tests as in Examples 1, 2 and 3", "type": "cell-based", "description": "as §7"}, "[11]": {"test_system": "thyroid gland cancer cell line SW1736", "assay": "tests as in Examples 1, 2 and 3", "type": "cell-based", "description": "as §7"}, "Sarmonella typhii": {"test_system": "Sarmonella typhii", "details": "on Sarmonella typhii; cited from earlier work"}, "Escherichia coli": {"test_system": "Escherichia coli", "details": "on Escherichia coli; cited from earlier work"}, "Staphylococcus aureus": {"test_system": "Staphylococcus aureus", "details": "on Staphylococcus aureus; cited from earlier work"}, "[12]": {"details": "in body; cited from earlier work"}},
  "data": [
    {"smiles": "OCc1ccccc1", "note": "[BA, Benzyl alcohol]", "values": [
      {"measurement": "BA concentration at which cell adhesiveness begins to decrease", "setting": "[1]", "value": "about 1.5 mg/ml"},
      {"measurement": "cell shape", "setting": "[2]", "value": "cell shape changed from a spindle to a circle and got swollen"},
      {"measurement": "tumor diameter compared with the control", "setting": "[3]; nude mouse, 4 mg/0.5 ml twice a week to or around the tumor, 16 mg administration (2 weeks)", "value": "contracted in diameter compared with the control"},
      {"measurement": "tumor diameter decrease", "setting": "[3]; nude mouse, 4 mg/0.5 ml twice a week to or around the tumor, after the 32 mg administration (4 weeks)", "value": "½"},
      {"measurement": "H-E dyed tumor tissue image", "setting": "[3]; tumor extracted after 4 weeks of administration, FIG. 5", "value": "cells were scattered sparsely with the swollen cytoplasm, appearance of the inclusion bodies and contraction of the nucleus"},
      {"measurement": "DNA laddering", "setting": "[4]", "value": "No laddering was recognized"},
      {"measurement": "Digoxigenin dyeing in the nucleus (TUNEL)", "setting": "STKM cells", "value": "no Digoxigenin dyeing image in the nucleus"},
      {"measurement": "Caspase-3 activity", "setting": "Caspase-3; 37° C. for 48 hrs, FIG. 8", "value": 45.4, "unit": "RFI/well/Hr"},
      {"measurement": "Caspase-3 activity compared with positive control (Arac)", "setting": "Caspase-3; 48 hrs, p<0.001", "value": "significantly lower than that of the positive control"},
      {"measurement": "Caspase-8 activity compared with positive control (Arac)", "setting": "Caspase-8; FIG. 9", "value": "significantly lower than that of the positive control"},
      {"measurement": "Caspase activity compared with negative control (physiological saline)", "setting": "Caspase-8; FIGS. 8, 9", "value": "almost equal to that of the negative control"},
      {"measurement": "resistance to BA compared with Huvec", "setting": "lung cell line (WI38)", "value": "more resistant to BA than the Huvec"},
      {"measurement": "cell death effect compared to STKM", "setting": "lung cell line (WI38); colorimetric assay", "value": "lower effect compared to the STKM"},
      {"measurement": "cell death effect compared to STKM", "setting": "[5]", "value": "lower effect compared to the STKM"},
      {"measurement": "BA concentration at which cell mortality begins to increase (same as adhesiveness)", "setting": "[6]", "value": "about 1.5 mg/ml"},
      {"measurement": "route of cell death", "setting": "[6]", "value": "did not arrive at death through an apoptosis route, but through a necrosis one"},
      {"measurement": "BA concentration at which cell mortality begins to increase (same as adhesiveness)", "setting": "[7]", "value": "about 1.5 mg/ml"},
      {"measurement": "route of cell death", "setting": "[7]", "value": "did not arrive at death through an apoptosis route, but through a necrosis one"},
      {"measurement": "BA concentration at which cell mortality begins to increase (same as adhesiveness)", "setting": "[8]", "value": "about 1.5 mg/ml"},
      {"measurement": "route of cell death", "setting": "[8]", "value": "did not arrive at death through an apoptosis route, but through a necrosis one"},
      {"measurement": "BA concentration at which cell mortality begins to increase (same as adhesiveness)", "setting": "[9]", "value": "about 1.5 mg/ml"},
      {"measurement": "route of cell death", "setting": "[9]", "value": "did not arrive at death through an apoptosis route, but through a necrosis one"},
      {"measurement": "BA concentration at which cell mortality begins to increase (same as adhesiveness)", "setting": "[10]", "value": "about 1.5 mg/ml"},
      {"measurement": "route of cell death", "setting": "[10]", "value": "did not arrive at death through an apoptosis route, but through a necrosis one"},
      {"measurement": "BA concentration at which cell mortality begins to increase (same as adhesiveness)", "setting": "[11]", "value": "about 1.5 mg/ml"},
      {"measurement": "route of cell death", "setting": "[11]", "value": "did not arrive at death through an apoptosis route, but through a necrosis one"},
      {"measurement": "phenol coefficient", "setting": "Sarmonella typhii", "value": 0.4},
      {"measurement": "phenol coefficient", "setting": "Escherichia coli", "value": 0.6},
      {"measurement": "phenol coefficient", "setting": "Staphylococcus aureus", "value": 0.5},
      {"measurement": "metabolism and excretion", "setting": "[12]", "value": "converted to benzoic acid in body and excreted as hippuric acid"}
    ]}
  ]
}
